Tested on: healthy male volunteers
Test: Randomized, double-blind, placebo-controlled gastric emptying study (99Tc radiolabeled meal, external scintigraphy)
Type: in vivo, human
Procedure: Methodology: This is a single center, double-blind, randomized, parallel group trial using a placebo control or tegaserod 6 mg t.i.d. in combination with omeprazole 20 mg b.i.d. Gastric emptying is assessed using a standardized method that has been previously validated and found to be sensitive and specific. After an overnight fast, the subjects are asked to ingest a standardized ^99Tc radiolabeled meal (250 ml EggBeater, the equivalent of two eggs, two slices of white bread, 30 cc of strawberry jam and 120 ml of water). The level of radioactivity in gastric contents is measured by external scintigraphy immediately following completion of the meal and then at 60, 120 and 240 minutes after the end of the meal.
Number of subjects: 40 healthy male volunteers (20 per group)
Investigational drug: Tegaserod 6 mg tablets (supplied by Novartis Canada, but are normal 6 mg Zelnorm tablet obtainable as prescription) for oral administration. Each dose consists of a tablet to be taken with a glass of water within 15-30 minutes before mealtime three times daily. […]
Efficacy: The primary efficacy parameter is time to half emptying (T1/2) of gastric contents. The secondary efficacy endpoints were the calculated lag phase, and percent of gastric contents remaining in the stomach at 60, 120 and 240 minutes after ingestion of a standard meal. […]

CCCCCNC(=N)N/N=C/c1c[nH]c2ccc(OC)cc12 [tegaserod, 3-(5-methoxy-1H-indol-3-yl-methylene)-N-pentylcarbazimidamide]
gastric emptying at all the studied time points versus baseline (tegaserod 6 mg t.i.d. in combination with omeprazole 20 mg b.i.d., oral, 14 days): not statistically different from the respective baseline values | development of delayed gastric emptying caused by omeprazole (tegaserod added to omeprazole, healthy male volunteers): prevented development of delayed gastric emptying
